Laboratory results reported in patent publication US11000033B2, “Ketone or oxime compound, and herbicide” (NISSAN CHEMICAL CORPORATION, priority 2014, dated 2021).

Columns and labels:
Assay type in all cases: in vivo
[1] = test system: Echinochloa oryzacola Vasing.; experiment: Test Example 1: herbicidal activity, application before weed generation in submerged conditions (symbol A); details: application herbicide amount 320 g/ha
Method in brief: (§1)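 Ratings (5: ≥90%, near complete withering; 4: 70–<90%; 3: 40–<70%; 2: 20–<40%; 1: 5–<20%; 0: ≤5%) were assigned 3 weeks after the diluted emulsion was applied to the water surface of freshly sown, submerged pots.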

Scirpus juncoides = experiment: Test Example 1: herbicidal activity, application before weed generation in submerged conditions (symbol B); details: application herbicide amount 320 g/ha
Method in brief: as §1

[2] = test system: Echinochloa crus-galli var. crus-galli; experiment: Test Example 3: herbicidal effect by foliage application, Wagner pot (symbol H); details: application herbicide amount 320 g/ha
Method in brief: (§2)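 The compound, formulated as an emulsion and diluted with water to a predetermined rate, is applied uniformly to leaves of two-week-old seedlings growing in submerged alluvial soil at 25–30 °C. Rice is included. Each plant is assessed 3 weeks later using defined criteria.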

Cyperus difformis = experiment: Test Example 3: herbicidal effect by foliage application, Wagner pot (symbol E); details: application herbicide amount 320 g/ha
Method in brief: as §2

Setaria viridis = experiment: Test Example 4: herbicidal effect by soil treatment (symbol G); details: application herbicide amount 320 g/ha
Method in brief: (§3)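 Seeds were sown in sterilized diluvial soil, covered with about 1.5 cm of soil, and the soil surface was sprayed with a water-diluted emulsion of the compound at a predetermined rate. Plants grew in a greenhouse at 25° C. to 30° C.; effects were scored visually 3 weeks after application.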

Alopecurus myosuroides [3] = experiment: Test Example 4: herbicidal effect by soil treatment (symbol J); details: application herbicide amount 320 g/ha
Method in brief: as §3

Apera spica-venti [4] = experiment: Test Example 4: herbicidal effect by soil treatment (symbol L); details: application herbicide amount 320 g/ha
Method in brief: as §3

wheat = experiment: Test Example 4: effect on crop by soil treatment (symbol e); details: application herbicide amount 320 g/ha
Method in brief: (§4)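 Greenhouse culture at 25° C. to 30° C. followed sowing of seed in spots on sterilized diluvial soil with a soil cover close to 1.5 cm thick.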

rapeseed [5] = experiment: Test Example 4: effect on crop by soil treatment (symbol g); details: application herbicide amount 320 g/ha
Method in brief: as §4

Digitaria ciliaris = experiment: Test Example 5: herbicidal effect by foliage application, plastic box (symbol F); details: 320 g/ha, 3 weeks after application
Method in brief: (§5)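 Visual herbicidal score, taken three weeks post-application, of seedlings sprayed on the foliage with water-diluted emulsion at a predetermined amount; plants were 14 days old, greenhouse-raised at 25° C. to 30° C.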

Alopecurus myosuroides [6] = experiment: Test Example 5: herbicidal effect by foliage application, plastic box (symbol J); details: 320 g/ha, 3 weeks after application
Method in brief: as §5

Apera spica-venti [7] = experiment: Test Example 5: herbicidal effect by foliage application, plastic box (symbol L); details: 320 g/ha, 3 weeks after application
Method in brief: as §5

Abutilon theophrasti = experiment: Test Example 5: herbicidal effect by foliage application, plastic box (symbol M); details: 320 g/ha, 3 weeks after application
Method in brief: as §5

Amaranthus retroflexus = experiment: Test Example 5: herbicidal effect by foliage application, plastic box (symbol N); details: 320 g/ha, 3 weeks after application
Method in brief: as §5

Stellaria media = experiment: Test Example 5: herbicidal effect by foliage application, plastic box (symbol P); details: 320 g/ha, 3 weeks after application
Method in brief: as §5

beet = experiment: Test Example 5: effect on crop by foliage application, plastic box (symbol f); details: 320 g/ha, 3 weeks after application
Method in brief: (§6)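 Plants were raised from seed in a greenhouse (25° C. to 30° C.) after sowing in a plastic box of sterilized diluvial soil.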

rapeseed [8] = experiment: Test Example 5: effect on crop by foliage application, plastic box (symbol g); details: 320 g/ha, 3 weeks after application
Method in brief: as §6

SMILES	Herbicidal effect grade, A: Echinochloa oryzacola Vasing. [1]	Herbicidal effect grade, B: Scirpus juncoides (Scirpus juncoides)	herbicidal effect on H (Echinochloa crus-galli var. crus-galli), grade 0-5 [2]	herbicidal effect on E, grade 0-5 (Cyperus difformis)	Herbicidal effect grade, G: Setaria viridis (Setaria viridis)	Herbicidal effect grade, J: Alopecurus myosuroides (Alopecurus myosuroides [3])	Effect on crop grade, e: wheat (wheat)	Effect on crop grade, g: rapeseed (rapeseed [5])	F: Digitaria ciliaris, herbicidal effect (criteria of Test Example 1) (Digitaria ciliaris)	J: Alopecurus myosuroides, herbicidal effect (criteria of Test Example 1) (Alopecurus myosuroides [6])	L: Apera spica-venti, herbicidal effect (criteria of Test Example 1) (Apera spica-venti [7])	M: Abutilon theophrasti, herbicidal effect (criteria of Test Example 1) (Abutilon theophrasti)	N: Amaranthus retroflexus, herbicidal effect (criteria of Test Example 1) (Amaranthus retroflexus)	P: Stellaria media, herbicidal effect (criteria of Test Example 1) (Stellaria media)	f: beet, effect on crop (criteria of Test Example 1) (beet)	g: rapeseed, effect on crop (criteria of Test Example 1) (rapeseed [8])	G (Setaria viridis) herbicidal effect grade (Setaria viridis)	J (Alopecurus myosuroides) herbicidal effect grade (Alopecurus myosuroides [3])	L (Apera spica-venti) herbicidal effect grade (Apera spica-venti [4])	e (wheat) effect on crop grade (wheat)	other results
CC(=O)CC1CC(O)=C(c2c(C)cc(-c3ccc(Cl)cc3)cc2C)C1=O (centres unmarked) [7-008]	4 (Herbicidal ratio of 70% or higher and lower than 90%)	2 (Herbicidal ratio of 20% or higher and lower than 40%)	5 (Herbicidal ratio of 90% or more (almost completely withered))	5 (Herbicidal ratio of 90% or more (almost completely withered))	5 (Herbicidal ratio of 90% or more (almost completely withered))	5 (Herbicidal ratio of 90% or more (almost completely withered))	1 (Herbicidal ratio of 5% or higher and lower than 20%)	0 (Herbicidal ratio of 5% or lower (almost no effect))	5 (Herbicidal ratio of 90% or more (almost completely withered))	5 (Herbicidal ratio of 90% or more (almost completely withered))	5 (Herbicidal ratio of 90% or more (almost completely withered))	1 (Herbicidal ratio of 5% or higher and lower than 20%)	0 (Herbicidal ratio of 5% or lower (almost no effect))	1 (Herbicidal ratio of 5% or higher and lower than 20%)	0 (Herbicidal ratio of 5% or lower (almost no effect))	3 (Herbicidal ratio of 40% or higher and lower than 70%)	–	–	–	–	Herbicidal effect grade, L: Apera spica-venti (Apera spica-venti [4]): 5 (Herbicidal ratio of 90% or more (almost completely withered))
CON=C(C)CC1CC(OC(=O)C(C)CSC)=C(c2c(C)cc(-c3ccc(Cl)cc3)cc2C)C1=O (centres unmarked) [6-086]	5 (Herbicidal ratio of 90% or more (almost completely withered))	2 (Herbicidal ratio of 20% or higher and lower than 40%)	5 (Herbicidal ratio of 90% or more (almost completely withered))	5 (Herbicidal ratio of 90% or more (almost completely withered))	5 (Herbicidal ratio of 90% or more (almost completely withered))	5 (Herbicidal ratio of 90% or more (almost completely withered))	2 (Herbicidal ratio of 20% or higher and lower than 40%)	4 (Herbicidal ratio of 70% or higher and lower than 90%)	5 (Herbicidal ratio of 90% or more (almost completely withered))	5 (Herbicidal ratio of 90% or more (almost completely withered))	5 (Herbicidal ratio of 90% or more (almost completely withered))	3 (Herbicidal ratio of 40% or higher and lower than 70%)	0 (Herbicidal ratio of 5% or lower (almost no effect))	4 (Herbicidal ratio of 70% or higher and lower than 90%)	3 (Herbicidal ratio of 40% or higher and lower than 70%)	4 (Herbicidal ratio of 70% or higher and lower than 90%)	–	–	–	–	–
CON=C(C)CC1CC(OC(=O)C(C)(C)Oc2ccccc2)=C(c2c(C)cc(C)cc2C)C1=O (centres unmarked) [1-017]	5 (Herbicidal ratio of 90% or more (almost completely withered))	5 (Herbicidal ratio of 90% or more (almost completely withered))	5 (Herbicidal ratio of 90% or more (almost completely withered))	5 (Herbicidal ratio of 90% or more (almost completely withered))	–	–	–	–	–	–	–	–	–	–	–	–	5 (Herbicidal ratio of 90% or more (almost completely withered))	5 (Herbicidal ratio of 90% or more (almost completely withered))	5 (Herbicidal ratio of 90% or more (almost completely withered))	2 (Herbicidal ratio of 20% or higher and lower than 40%)	g (rapeseed) effect on crop grade (rapeseed [5]): 4 (Herbicidal ratio of 70% or higher and lower than 90%); F: Digitaria ciliaris, herbicidal effect grade (Digitaria ciliaris): 5 (Herbicidal ratio of 90% or more (almost completely withered)); J: Alopecurus myosuroides, herbicidal effect grade (Alopecurus myosuroides [6]): 5 (Herbicidal ratio of 90% or more (almost completely withered)); L: Apera spica-venti, herbicidal effect grade (Apera spica-venti [7]): 5 (Herbicidal ratio of 90% or more (almost completely withered)); M: Abutilon theophrasti, herbicidal effect grade (Abutilon theophrasti): 4 (Herbicidal ratio of 70% or higher and lower than 90%); N: Amaranthus retroflexus, herbicidal effect grade (Amaranthus retroflexus): 4 (Herbicidal ratio of 70% or higher and lower than 90%); f: beet, effect on crop grade (beet): 2 (Herbicidal ratio of 20% or higher and lower than 40%); g: rapeseed, effect on crop grade (rapeseed [8]): 4 (Herbicidal ratio of 70% or higher and lower than 90%)
CON=C(C)CC1CC(OC(=O)C(C)(C)CCl)=C(c2c(C)cc(C)cc2C)C1=O (centres unmarked) [1-016]	5 (Herbicidal ratio of 90% or more (almost completely withered))	5 (Herbicidal ratio of 90% or more (almost completely withered))	5 (Herbicidal ratio of 90% or more (almost completely withered))	5 (Herbicidal ratio of 90% or more (almost completely withered))	–	–	–	–	–	–	–	–	–	–	–	–	3 (Herbicidal ratio of 40% or higher and lower than 70%)	5 (Herbicidal ratio of 90% or more (almost completely withered))	5 (Herbicidal ratio of 90% or more (almost completely withered))	2 (Herbicidal ratio of 20% or higher and lower than 40%)	g (rapeseed) effect on crop grade (rapeseed [5]): 4 (Herbicidal ratio of 70% or higher and lower than 90%); F: Digitaria ciliaris, herbicidal effect grade (Digitaria ciliaris): 5 (Herbicidal ratio of 90% or more (almost completely withered)); J: Alopecurus myosuroides, herbicidal effect grade (Alopecurus myosuroides [6]): 5 (Herbicidal ratio of 90% or more (almost completely withered)); L: Apera spica-venti, herbicidal effect grade (Apera spica-venti [7]): 5 (Herbicidal ratio of 90% or more (almost completely withered)); M: Abutilon theophrasti, herbicidal effect grade (Abutilon theophrasti): 4 (Herbicidal ratio of 70% or higher and lower than 90%); N: Amaranthus retroflexus, herbicidal effect grade (Amaranthus retroflexus): 4 (Herbicidal ratio of 70% or higher and lower than 90%); f: beet, effect on crop grade (beet): 3 (Herbicidal ratio of 40% or higher and lower than 70%); g: rapeseed, effect on crop grade (rapeseed [8]): 4 (Herbicidal ratio of 70% or higher and lower than 90%)
